# Measured values from ChEMBL document CHEMBL1201862, “PubChem BioAssay data set” (2004).
#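 Briefly, cells in 96-well plates were exposed to five compound concentrations for 48 h, and endpoints were estimated by linear interpolation. GI50 = concentration required for 50% inhibition of growth.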 Calls of active or inactive are those of the source. Rule as the data show it: active = GI50 up to about 1.1 µM and inactive = higher.
# How the values were obtained:
# Test in all cases: NCI-60 cell line screen, 48 h
# LXFL 529 = test system: LXFL 529
# TK-10 = test system: TK-10
# DLD-1 = test system: DLD-1
# Malme-3M = test system: Malme-3M
# A498 = test system: A498
# SNB-75 = test system: SNB-75
# KM-20L2 = test system: KM-20L2
# COLO 205 = test system: COLO 205
# HT-29 = test system: HT-29
# K562 = test system: K562
# M14 = test system: M14
# EKVX = test system: EKVX
# SK-OV-3 = test system: SK-OV-3
# CCRF-CEM = test system: CCRF-CEM
# OVCAR-3 = test system: OVCAR-3
# UACC-62 = test system: UACC-62
# SNB-78 = test system: SNB-78
# RXF 631 = test system: RXF 631
# NCI-H522 = test system: NCI-H522
# M19-MEL = test system: M19-MEL
# HL-60 = test system: HL-60
# XF498 = test system: XF498
# HOP-62 = test system: HOP-62
# SK-MEL-5 = test system: SK-MEL-5
# MOLT-4 = test system: MOLT-4
# SF-295 = test system: SF-295
# DMS-273 = test system: DMS-273
# KM12 = test system: KM12
# SK-MEL-2 = test system: SK-MEL-2
# NCI-H460 = test system: NCI-H460
# SK-MEL-28 = test system: SK-MEL-28
# IGROV-1 = test system: IGROV-1
# CAKI-1 = test system: CAKI-1
# UACC-257 = test system: UACC-257
# RXF 393 = test system: RXF 393
# RPMI-8226 = test system: RPMI-8226
# HCT-15 = test system: HCT-15
# HOP-92 = test system: HOP-92
# U-251 = test system: U-251
# NCI-H23 = test system: NCI-H23
# SN12C = test system: SN12C
# SF-539 = test system: SF-539
# HCC 2998 = test system: HCC 2998
# LOX IMVI = test system: LOX IMVI
# OVCAR-8 = test system: OVCAR-8
# ACHN = test system: ACHN
# OVCAR-5 = test system: OVCAR-5
# UO-31 = test system: UO-31
# SR = test system: SR
# SF-268 = test system: SF-268
# SW-620 = test system: SW-620
# HCT-116 = test system: HCT-116
# SNB-19 = test system: SNB-19
# Hs-578T = test system: Hs-578T
# MDA-MB-435 = test system: MDA-MB-435
# MCF7 = test system: MCF7
# MDA-N = test system: MDA-N
# MDA-MB-231 = test system: MDA-MB-231
# T47D = test system: T47D
# DU-145 = test system: DU-145
# OVCAR-4 = test system: OVCAR-4
# BT-549 = test system: BT-549
# 786-0 = test system: 786-0
# A549 = test system: A549
# NCI-H226 = test system: NCI-H226
# DMS-114 = test system: DMS-114
# NCI/ADR-RES = test system: NCI/ADR-RES
# PC-3 = test system: PC-3
compound,measurement,setting,value
CN(C)[C@@H]1C(O)=C(C(=O)NCN2CCN(C(=N)NC(=N)N)CC2)C(=O)[C@@]2(O)C(O)=C3C(=O)c4c(O)cccc4[C@@](C)(O)[C@H]3C[C@@H]12,GI50,LXFL 529,0.0857 µM (active)
same,GI50,TK-10,0.468 µM (active)
same,GI50,DLD-1,0.0466 µM (active)
same,GI50,Malme-3M,0.269 µM (active)
same,GI50,A498,1.14 µM (inactive)
same,GI50,SNB-75,0.138 µM (active)
same,GI50,KM-20L2,0.299 µM (active)
same,GI50,COLO 205,0.0798 µM (active)
same,GI50,HT-29,0.123 µM (active)
same,GI50,K562,0.0401 µM (active)
same,GI50,M14,0.279 µM (active)
same,GI50,EKVX,0.286 µM (active)
same,GI50,SK-OV-3,1.29 µM (inactive)
same,GI50,CCRF-CEM,0.11 µM (active)
same,GI50,OVCAR-3,0.287 µM (active)
same,GI50,UACC-62,0.172 µM (active)
same,GI50,SNB-78,69.8 nM (active)
same,GI50,RXF 631,0.166 µM (active)
same,GI50,NCI-H522,0.0329 µM (active)
same,GI50,M19-MEL,0.31 µM (active)
same,GI50,HL-60,0.0236 µM (active)
same,GI50,XF498,0.091 µM (active)
same,GI50,HOP-62,1.14 µM (inactive)
same,GI50,SK-MEL-5,0.183 µM (active)
same,GI50,MOLT-4,0.0597 µM (active)
same,GI50,SF-295,0.506 µM (active)
same,GI50,DMS-273,0.252 µM (active)
same,GI50,KM12,0.368 µM (active)
same,GI50,SK-MEL-2,0.113 µM (active)
same,GI50,NCI-H460,0.324 µM (active)
same,GI50,SK-MEL-28,0.238 µM (active)
same,GI50,IGROV-1,0.207 µM (active)
same,GI50,CAKI-1,0.274 µM (active)
same,GI50,UACC-257,0.324 µM (active)
same,GI50,RXF 393,0.12 µM (active)
same,GI50,RPMI-8226,0.0315 µM (active)
same,GI50,HCT-15,72.1 nM
same,GI50,HOP-92,0.279 µM (active)
same,GI50,U-251,0.269 µM (active)
same,GI50,NCI-H23,0.136 µM (active)
same,GI50,SN12C,0.338 µM (active)
same,GI50,SF-539,0.216 µM (active)
same,GI50,HCC 2998,0.337 µM (active)
same,GI50,LOX IMVI,0.156 µM (active)
same,GI50,OVCAR-8,0.273 µM (active)
same,GI50,ACHN,0.306 µM (active)
same,GI50,OVCAR-5,0.282 µM (active)
same,GI50,UO-31,0.301 µM (active)
same,GI50,SR,0.0406 µM (active)
same,GI50,SF-268,0.518 µM (active)
same,GI50,SW-620,0.16 µM (active)
same,GI50,HCT-116,0.221 µM (active)
same,GI50,SNB-19,0.314 µM (active)
Nc1nc2c(ncn2C2CCC(CO)O2)c(=O)n1C(=O)c1ccccc1 (stereo not given),GI50,LXFL 529,> 100 µM (inactive)
same,GI50,Hs-578T,> 100 µM (inactive)
same,GI50,TK-10,> 100 µM (inactive)
same,GI50,DLD-1,> 100 µM (inactive)
same,GI50,Malme-3M,> 100 µM (inactive)
same,GI50,A498,> 100 µM (inactive)
same,GI50,MDA-MB-435,> 100 µM (inactive)
same,GI50,SNB-75,> 74.5 µM (inactive)
same,GI50,KM-20L2,> 100 µM (inactive)
same,GI50,COLO 205,> 100 µM (inactive)
same,GI50,HT-29,> 100 µM (inactive)
same,GI50,K562,> 100 µM (inactive)
same,GI50,M14,> 100 µM (inactive)
same,GI50,MCF7,> 100 µM (inactive)
same,GI50,EKVX,> 100 µM (inactive)
same,GI50,SK-OV-3,> 100 µM (inactive)
same,GI50,CCRF-CEM,> 100 µM (inactive)
same,GI50,OVCAR-3,> 100 µM (inactive)
same,GI50,UACC-62,> 100 µM (inactive)
same,GI50,RXF 631,> 100 µM (inactive)
same,GI50,NCI-H522,> 100 µM (inactive)
same,GI50,M19-MEL,> 100 µM (inactive)
same,GI50,MDA-N,> 100 µM (inactive)
same,GI50,HL-60,> 100 µM (inactive)
same,GI50,XF498,> 100 µM (inactive)
same,GI50,HOP-62,> 100 µM (inactive)
same,GI50,MDA-MB-231,> 100 µM (inactive)
same,GI50,SK-MEL-5,> 100 µM (inactive)
same,GI50,T47D,> 100 µM (inactive)
same,GI50,MOLT-4,> 100 µM (inactive)
same,GI50,SF-295,> 100 µM (inactive)
same,GI50,DMS-273,> 100 µM (inactive)
same,GI50,KM12,> 100 µM (inactive)
same,GI50,SK-MEL-2,> 100 µM (inactive)
same,GI50,NCI-H460,> 100 µM (inactive)
same,GI50,DU-145,> 100 µM (inactive)
same,GI50,SK-MEL-28,> 100 µM (inactive)
same,GI50,IGROV-1,> 100 µM (inactive)
same,GI50,CAKI-1,> 100 µM (inactive)
same,GI50,OVCAR-4,> 100 µM (inactive)
same,GI50,BT-549,> 100 µM (inactive)
same,GI50,UACC-257,> 100 µM (inactive)
same,GI50,RXF 393,> 100 µM (inactive)
same,GI50,RPMI-8226,> 100 µM (inactive)
same,GI50,HCT-15,> 100000 nM
same,GI50,HOP-92,> 100 µM (inactive)
same,GI50,U-251,> 100 µM (inactive)
same,GI50,NCI-H23,> 100 µM (inactive)
same,GI50,SN12C,> 100 µM (inactive)
same,GI50,SF-539,> 100 µM (inactive)
same,GI50,HCC 2998,> 100 µM (inactive)
same,GI50,LOX IMVI,> 100 µM (inactive)
same,GI50,786-0,> 100 µM (inactive)
same,GI50,OVCAR-8,> 100 µM (inactive)
same,GI50,ACHN,> 100 µM (inactive)
same,GI50,OVCAR-5,> 100 µM (inactive)
same,GI50,A549,> 100 µM (inactive)
same,GI50,UO-31,> 100 µM (inactive)
same,GI50,SR,67.3 µM (inactive)
same,GI50,SF-268,> 100 µM (inactive)
same,GI50,NCI-H226,> 100 µM (inactive)
same,GI50,DMS-114,> 100 µM (inactive)
same,GI50,NCI/ADR-RES,> 100 µM (inactive)
same,GI50,SW-620,> 100 µM (inactive)
same,GI50,PC-3,> 100 µM (inactive)
same,GI50,HCT-116,> 100 µM (inactive)
same,GI50,SNB-19,> 100 µM (inactive)
